This passage reports MIC results from ChEMBL document CHEMBL1150794, “Vibrio splendidus as the source of plasmid-mediated QnrS-like quinolone resistance determinants” (2007).

Converted amounts (≈) assume the structure as drawn.

Assay type in all cases: functional
In assay [1] the test system is Vibrio splendidus. Put plainly: Antimicrobial activity against Vibrio splendidus 12B01 expressing plasmid-mediated QnrS-like quinolone resistance determinants.
For assay [2], the system named is Escherichia coli. The assay can be described thus: Antimicrobial activity against Escherichia coli TOP10.
Assay [3] concerns Vibrio splendidus. Put plainly: Antimicrobial activity against Vibrio splendidus LGP32 expressing plasmid-mediated QnrS-like quinolone resistance determinants.
Assay [4] relates to Escherichia coli. The assay can be described thus: Antimicrobial activity against Escherichia coli TOP10 harbouring pVS1 expressing quinolone resistant Vibrio splendidus 12B01 QnrVS1 gene.
In assay [5] the test system is Escherichia coli. Put plainly: Antimicrobial activity against Escherichia coli TOP10 harbouring pVS2 expressing quinolone resistant Vibrio splendidus LGP32 QnrVS2 gene.
The test system of assay [6] is Escherichia coli. Put plainly: Antimicrobial activity against Escherichia coli TOP10 harbouring pS2 plasmid expressing quinolone resistant QnrS2 gene.
Assay [7] concerns Escherichia coli. Put plainly: Antimicrobial activity against Escherichia coli TOP10 harbouring pS1 plasmid expressing quinolone resistant QnrS1 gene.
In assay [8] the test system is Escherichia coli. The assay can be described thus: Antimicrobial activity against Escherichia coli TOP10 harbouring p0 plasmid expressing pCR-BluntII-TOPO.

In the case of `O=C(O)c1cn(C2CC2)c2cc(N3CCNCC3)c(F)cc2c1=O` [CIPROFLOXACIN], the MIC against Vibrio splendidus [1] was 0.25 µg/mL (≈ 0.754 µM); against Escherichia coli [2] it was < 0.01 µg/mL; against Vibrio splendidus [3], 0.25 µg/mL (≈ 0.754 µM).
As for `CC1COc2c(N3CCN(C)CC3)c(F)cc3c(=O)c(C(=O)O)cn1c23` (configuration not stated) [OFLOXACIN], the MIC worked out at 0.25 µg/mL (≈ 0.692 µM) in the assay with Vibrio splendidus [1], 0.25 µg/mL (≈ 0.692 µM) in the assay with Escherichia coli [4], 0.25 µg/mL (≈ 0.692 µM) against Escherichia coli [5] and 0.5 µg/mL (≈ 1.38 µM) against Vibrio splendidus [3].
For `CCn1cc(C(=O)O)c(=O)c2ccc(C)nc21` [NALIDIXIC ACID], the MIC with Escherichia coli [6] stood at 8 µg/mL (≈ 34.4 µM); against Escherichia coli [7], 8 µg/mL (≈ 34.4 µM); with Vibrio splendidus [1], 2 µg/mL (≈ 8.61 µM); in the assay with Escherichia coli [8], 1 µg/mL (≈ 4.31 µM); against Escherichia coli [2], 1 µg/mL (≈ 4.31 µM); in the assay on Escherichia coli [4], 8 µg/mL (≈ 34.4 µM). Also, the minimal inhibitory concentration (MIC) against Escherichia coli [5] came out at 8 µg/mL (≈ 34.4 µM); in the assay on Vibrio splendidus [3], 4 µg/mL (≈ 17.2 µM).
For `C[C@@H]1CN(c2c(F)c(N)c3c(=O)c(C(=O)O)cn(C4CC4)c3c2F)C[C@H](C)N1` [SPARFLOXACIN], the minimum inhibitory concentration (MIC) against Escherichia coli [6] is 0.25 µg/mL (≈ 0.637 µM); in the assay on Escherichia coli [7], 0.25 µg/mL (≈ 0.637 µM); against Vibrio splendidus [1] it was 0.25 µg/mL (≈ 0.637 µM); against Escherichia coli [2] it was < 0.01 µg/mL; in the assay with Escherichia coli [4], 0.12 µg/mL (≈ 0.306 µM); in the assay on Escherichia coli [5] it was 0.12 µg/mL (≈ 0.306 µM). The same molecule registered an MIC in the assay on Vibrio splendidus [3] of 0.5 µg/mL (≈ 1.27 µM).
With `COc1c(N2C[C@@H]3CCCN[C@@H]3C2)c(F)cc2c(=O)c(C(=O)O)cn(C3CC3)c12` [MOXIFLOXACIN], the MIC is 0.25 µg/mL (≈ 0.623 µM) against Escherichia coli [6]; 0.25 µg/mL (≈ 0.623 µM) against Escherichia coli [7]; 0.25 µg/mL (≈ 0.623 µM) in the assay with Vibrio splendidus [1]; < 0.01 µg/mL with Escherichia coli [2]; 0.12 µg/mL (≈ 0.299 µM) against Escherichia coli [4]; 0.12 µg/mL (≈ 0.299 µM) in the assay on Escherichia coli [5]. This molecule had an MIC against Vibrio splendidus [3] of 0.25 µg/mL (≈ 0.623 µM).
Consider `CCn1cc(C(=O)O)c(=O)c2cc(F)c(N3CCNCC3)cc21` [NORFLOXACIN], for which the MIC in the assay on Escherichia coli [6] amounted to 1 µg/mL (≈ 3.13 µM); with Escherichia coli [7] it was 1 µg/mL (≈ 3.13 µM); against Vibrio splendidus [1] it was 0.25 µg/mL (≈ 0.783 µM); in the assay on Escherichia coli [8] it was 0.03 µg/mL (≈ 0.0939 µM); against Escherichia coli [2] it was 0.03 µg/mL (≈ 0.0939 µM); against Escherichia coli [4], 0.5 µg/mL (≈ 1.57 µM). Moreover, the MIC in the assay with Escherichia coli [5] and with Vibrio splendidus [3] was 0.5 µg/mL (≈ 1.57 µM) in each case.

What is called MIC is the smallest concentration in the dilution series that meets the test's criterion for growth inhibition. Higher therefore signals a less susceptible organism.
